Assay results taken from patent US20040033482A1, “Device and method for the measurement of forces from living materials” (priority 2000, published 2004).

Test system: fibroblasts (or smooth muscle cells)
Assay: Measurement of lateral intrinsic forces of a cell layer cultured on an elastically deformable membrane (membrane deflection read by laser)
Type: cell-based
Conditions: for change in cell layer tension in dependence on time: FIG. 4, consecutive addition of thrombin (20, 50, 100 U/ml), EDTA (0.1% by weight, 2 min), trypsin (0.2% by weight, 15 min); for tension transmitted to the membrane (intrinsic forces): FIG. 5 and FIG. 6, addition of thrombin, then EDTA, then trypsin
Method: A commercially available PET membrane is adhered to an open end of a cylinder; the other end remains open. During the adhesion process, a metal ring is used to pull uniformly on the membrane, such that the membrane is then stretched so that it is completely flat but not plastically deformed. 400 μl of cell culture medium (DPBS), corresponding to a fill height of a liquid column of about 2 mm, are then applied to the membrane (having a diameter of 16 mm). Due to the culture medium, the membrane is elastically preformed, i.e. deflected, and prepared for the application of living material.
1 ml of a suspension of fibroblasts (or smooth muscle cells), containing a cell count of 5×10^4/ml (or 7×10^4/ml), is then added to the prestretched membrane and the entire device is incubated in an incubator at 37° C. for 4 days for the purpose of culturing the cells. After the culturing, the culture medium is replaced with 400 μl of fresh medium. The mounting, together with membrane and cells cultured on it, which has thus been prepared is inserted into the measuring device and the measurement is carried out using a laser beam as the sensor.
As a result of replication, the cells adhere to the membrane and form a confluent monolayer (or multilayer). In connection with this, the cells secrete, over time, an extracellular matrix (ECM).
As a result of the growth of the cells, and the tensile stress in the cell layer and in the ECM which is connected therewith, and as a result of the fact that the cells and the ECM adhere to the membrane, the membrane experiences a change in tension. As a consequence of this, the deflection of the membrane decreases and raises the fill level of the medium slightly. This change in the deflection of the membrane is determined using a laser.
In order to stimulate the cell layer(s), thrombin is added to the medium to give final concentrations of 0-100 U/ml. 20 U/ml of culture medium are added first of all. The thrombin binds to the thrombin receptors and induces cell contraction. The membrane rises further to a slight extent. In this connection, the cells contract with a time constant which is typical. After a theoretically infinite measuring time, the measured change in the deflection of the membrane reaches a typical saturation value. Further quantities of thrombin are added consecutively to the cell culture medium above the membrane in increasing order, i.e. initially 50 U/ml and then 100 U/ml. The changes in the deflection of the membrane are measured correspondingly.
In each case, the cells are permitted to develop the contraction until, in the simplest case by way of fitting an exponential function, there is no need to await the achievement of the final value but, instead, the final measurement of the achievable concentration can be approximated. This decreases the measuring time. Both the characteristic onset time for the thrombin-mediated contraction effect and the maximum contraction which can be achieved in association with this contraction can be calculated from the exponential function which has been fitted.
The cells are detached from the ECM by adding EDTA (0.1% by weight) for a reaction time of 2 min. The same volumes as the quantities of liquid which are added in this connection are simultaneously removed once again at another site in the measuring chamber. The cells become detached with a typical time constant. As a consequence of this, the tension in the membrane changes since the forces acting on the membrane as a result of the cell contraction are no longer present; this means that the membrane becomes further deflected once again. In this case, too, an exponential function is approximated and the time constant and the final value of the tension recovery can be calculated approximately.
The ECM which is adhering to the membrane still maintains a part of the tension which arose during the cell growth. Adding trypsin (0.2% by weight) for a reaction time of 15 min. degrades the ECM. […]

Row | Compound | change in cell layer tension in dependence on time | tension transmitted to the membrane (intrinsic forces)
1 | O=C(O)CN(CCN(CC(=O)O)CC(=O)O)CC(=O)O [EDTA] | intrinsic forces which are measured decrease | membrane relaxing
2 | trypsin | also declines | tension in the extracellular matrix to subside
3 | thrombin | contraction of the living material can be observed to increase as the concentration of thrombin increases | increase markedly
